Source: patent US20200276181A1, “THIENOISOQUINOLINES AND THEIR DERIVATIVES FOR TARGETING TUBULIN, CH-TOG, AURORA A KINASE, TPX2, CDK5RAP2 AND/OR ASPM” (VALORBEC, SEC, priority 2017, published 2020)

Tests used:
[1] = system: HCT116, HeLa and A549 cells; assay: Cell cycle phases by flow cytometry; format: cell-based; details: 300 nM or 400 nM for 8 hours
Description: For each condition, 20,000 cells were counted per replicate (N=3). Line graphs (right) were made to better illustrate the relative changes in the cell cycle phases for the different treatments. Bars show standard deviation. The asterisks indicate the first statistically significant change in the G0/G1 and G2/M populations determined by a two-way ANOVA with a post-hoc Tukey's multiple comparisons test using 95% confidence intervals. FIG. 2B) is a line graph showing the percentage of HCT116 (p53−/−) cells, A549 cells, HeLa cells and H1299 cells in mitosis after treatment with various concentrations of C75 for one population doubling time. All of the cell lines show an increase in the proportion of mitotic cells after treatment with 200 nM C75. The bars indicate standard deviation. […]
C75 was also tested for efficacy in different cancer cell lines. […] To further assess the role of C75 in disrupting spindles, HeLa cells were treated with 300 nM C75 for 4 hours and the spindle phenotypes were analyzed in more detail (FIG. 2E). […] To assess the affect of C75 on centrosomes, HeLa cells were treated with C75 or nocodazole (a drug that causes microtubule depolymerization as a control) for a short period of time (5 minutes), then the drugs were removed and the cells were analyzed for spindle phenotypes (schematic in FIG. 2G). […]

HeLa cells = assay: Viability IC50 of C75 in combination with subthreshold tubulin-targeting drug; format: cell-based, human
Description: Bars show standard deviation. […] The bars indicate standard deviation. […] The bars indicate standard deviation. […] The scale bar for all cells is 10 μm.
Bars show standard deviation. […] The scale bar for all cells is 10 μm. In FIG. 4F), bar graphs show changes in the proportion of HCT 116 cells with the different spindle phenotypes as in FIG. 4D (n=2368; N=3). […] Bars indicate standard deviation.

Structure (SMILES): COc1ccc(S(=O)(=O)N2Cc3ccccc3-c3sc(Br)cc32)cc1 [Compound C75]
- change in proportion of G2/M cells [1]: increase in the proportion of G2/M cells
- lowering of the IC50 of C75 by subthreshold colchicine (HeLa cells; + 3 nM colchicine): ~2 fold
- reduction of the IC50 of C75 by subthreshold paclitaxel (HeLa cells; + 3 nM paclitaxel): ~2 fold
